The values below come from patent US6887894B2, “Use of lipoic acid for improving the bioavailability of mineral salts” (BASF Aktiengesellschaft, priority 2000, dated 2005).

SMILES strings stand for the structures. Marks after values point to notes of the source that are not given here.

For data set [1] the following is noted: in vivo; cited from earlier work.
For data set [2] the following is noted: in vivo; cited from earlier work. The source holds these as a separate data set.
Data set [3] can be described thus: Study 1/Study 2: bioavailability of Zn lipoate and ZnSO4 in rats (Example 4, Comparison Example 1). In kind it is in vivo. Conditions: diet with 0.4% NaPA, high dose 20 mg Zn/kg of feed, 28 days.
Method: Male Albino rats (Wistar) of an initial weight of 40 g were used. The animals were kept during each 28-day experimental period at a room temperature of 22° C., a relative humidity of approximately 55% and in a 12-hour light-dark cycle. The rats were housed individually in Makrolon cages with stainless steel bottoms which permitted controlled feed intake and quantitative collection of feces and urine. The feed was provided once a day at 8^00. The live mass of the rats was determined weekly, feces and urine were collected every day at 10^00 and 17^00. At the end of the experiment, the rats were decapitated after chloroform anesthesia. • 4.2 Description of the diets and experimental design
6 rats are used per experimental group. The mealy diets were administered ad lib. […] The control group (group 1) received the PA-free base diet.
The amounts of feces and urine produced separately in the metabolic cages are collected quantitatively every day and stored at −22° C. To avoid any losses of N in the urine collection vessels, 1 ml of 20% strength HCl (Suprapur) is added to each of the vessels daily. For further analysis, the sample material is freeze-dried for 48 h. • 4.3.2 Organ and tissue samples
The right femur, liver and testes are removed immediately after decapitation and complete exsanguination of the animals and the fresh mass is determined. The samples are sealed in plastic film and stored at −22° C. until further analysis. • 4.3.3 Blood
The rats are decapitated at the end of the experiment after complete narcosis with chloroform and the blood collected in heparinized plastic tubes. 40 I.U. of heparin sodium are introduced per ml of blood. […]
Zinc is determined by means of atomic absorption spectrophotometry (AAS) in an acetylene flame. • 4.5 Diagnosis of zinc status • 4.5.1 Determination of the plasma zinc concentration
The plasma zinc concentration is measured directly in the flame by means of AAS (Philips, PIJ 9400). […]
The enzyme activity is measured kinetically on a semimicroscale at a wavelength of 405 nm and 25° C. using a UV spectrophotometer. […]
Data set [4] in a line: Study 3: zootechnical parameters (feed intake, live weight) of growing rats. In kind it is in vivo. Conditions: for LW Gain: 28 days; for Live weight d0: initial weight. On the procedure:
(§1) 36 male Wistar albino rats (Harlan Winkelmann, Borchen) having an initial weight of 47.0±2.63 g were randomly divided into 6 groups each of 6 animals and fed the diets specified in Table 7 (experimental design) and Section 5.2 over a period of 28 days. The animals were kept individually in Makrolon cages on stainless grids under standard conditions (22° C., 55% relative humidity, 12 hour light/dark rhythm). Feed and deionized drinking water were available to the experimental animals ad libitum. During the 2nd and 3rd experimental week (metabolism phase) feces were collected quantitatively. After completion of the experimental phase (day 28), the animals were decapitated under CO2— anesthesia, exsanguinated and the tissue to be analyzed was removed. Groups Ib, IIb and IIIb here are Example 5, while Groups Ia, IIa and IIIa are Comparison Example 2.
Parameters used to estimate Zn availability were the zootechnical parameters feed intake, live weight development and live weight increase, apparent Zn absorption, alkaline phosphatase activity in plasma, plasma and femur Zn concentration and metallothionin concentration in liver tissue. • 5.2 Experimental diets
The experimental animals were fed semisynthetic diets based on high-purity components (corn starch, egg albumin protein, sucrose, soybean oil and cellulose) over a period of 28 days (see Table 8 for composition of the base diet), the experimental diets differing with respect to the type of zinc compound supplemented, the absolute Zn concentration and the phytic acid content (0.4% PA from NaPA, Sigma-Aldrich, Steinheim) (see Table 7).
Zn supplements used were Zn ((R)-α-Lipoat)2(H2O)2 from Example 1 (Example 5) and Zn sulfate (ZnSO4.7 H2O analytical grade, Merck, Darmstadt) (Comparison Example 2). The Zn concentrations of the experimental diets Ia-IIb were set at a level of 10 mg/kg of diet estimated to be marginal for growing rats, in order to enable investigation of the availability of the Zn supplements under test in the suboptimun supply range.

The nature of data set [5]: Study 3: Zn intake, fecal excretion and apparent absorption of zinc. It counts as in vivo. Conditions: rats. On the procedure: as §1
During the two-week metabolism phase, the rat feces were collected daily, adherent feed residues and other impurities were removed and the samples were stored at −20° C. At the end of the metabolism period the fecal weight was determined quantitatively and feces were then freeze-dried under vacuum over a period of 48 h (Gamma 1-20, Christ, Osterode). The dried samples were finely around using a domestic grinder (Moulinette electronic 89902) and stored at ambient temperature in PE bottles.
A sample aliquot of 1.5 g or the freeze-dried and ground fecal samples was dried for 24 h at 105° C. to remove residual water and then ashed in a muffle furnace at 450° C. for 21 h. The ash residue was dissolved by acid addition and then analyzed quantitatively. The Zn concentration in the fecal samples was determined by flame-AAS (Philips, PU 9400, Kassel). • 5.3.4 Diagnosis of Zn status
(§2) Zn absorption was calculated, without taking into account endogenous level as a difference between element […] and fecal excretion (=apparent absorption). Plasma Zn concentration was determined by AAS (Philips, PU 9400, Kassel). The samples were diluted with 0.1 M HCl in a ratio of 1:20 (v/v). The activity of the Zn metalloenzyme alkaline phosphatase (AP) (E.C. 3.1.3.1) wan assayed using the individual chemicals diethanolamine buffer and p-nitrophenyl phosphate according to the recommendations of the […] FÜR […] CHIMIE [German Clinical Chemistry Society] ([…] FÜR […] CHEMIE (1972). Standardmethode zur Bestimmung der Aktivität der alkalischen Phosphatase (AP) [Standard Method for Determining Alkaliur Phosphatase (AP) Activity]. Z. klin. Chem u. klin. Biochemie. 10, 191). • 5.3.5 Metallothionin in liver tissue

Data set [6] is described as follows: Study 3: Zn concentration in the femur. In kind it is in vivo. Conditions: rats, day 28. The procedure:
as §1
The ash solutions were prepared by the principle of wet ashing. The sample material was admixed with 10 ml of 65% strength HNO3 (Merck, Suprapur) and then boiled under a reflux condenser in a digestion apparatus (Gerhardt SMA-20, Bonn). This oxidatively degraded the organic matrix and completely mineralized the test material. The Zn concentration was determined in the ash solutions by flame-AAS (Philips, PU 9400, Kassel). • 5.3.3 Analysis of the fecal samples

Data set [7] in a line: Study 3: plasma Zn concentration. In kind it is in vivo. The following applies: rats, day 28. On the procedure: as §1
The samples were diluted with 0.1 M HCl in a ratio of 1:20 (v/v). […] CHIMIE [German Clinical Chemistry Society]

In data set [8] the test system is alkaline phosphatase (AP) (E.C. 3.1.3.1). Briefly: Study 3: alkaline phosphatase activity in plasma. In kind it is in vivo. Conditions: rats, day 28. The procedure:
as §1, §2

The test system of a further data set is metallothionin. As to the kind of experiment: Study 3: metallothionin in liver tissue. In kind it is in vivo. Conditions: rats, day 28. The procedure: as §1
Total MT concentration in liver tissue was determined using the cadmium-binding method of EATON and TOAL (EATON, D. L., TOAL, B. F. (1982): Evaluation of the cadmium/hemoglobin affinity assay for the rapid determination of metallothionein in biological tissues. Toxicol Appl. Pharmacol. 66, 134-142) in a modification tested at the Giessen Institute (LEUNERT, V. (1994): Einfluβ von Zink sowie fetalem Kälberserum, bovinem Serumalbumin und calciummobilisierenden Rezeptoragonlsten auf Metallothionein in primär kultivierten Rattenhepatocyten [Effect of zinc and fecal calf serum, vine serum albumin and calcium-immobilizing receptor agonists on metallothionin in primary cultivations of rat hepatocytes]. Inaugural dissertation at the Institut für Tierernahrung und Ernährungse-physiologie [Institute of Animal Nutrition and Nutritional Physiology] of the University of Cicesen, Verlag Shaker, Aachen, PALLAUF et al. 1995). The protein content in liver homogenates war determined using the Lowry-Folin method (DAWSON, R. M. C. ELLIOTT, D C; JONES, K. M. (1986): Data for biochemical research, 3rd ed., Clarendon Press, New York, 543). • 5.3.5. Statistical analysis

For data set [9] the following is noted: in vivo; cited from earlier work. The source holds these as a separate data set.
For data set [10] the following is noted: growing rats, suboptimal Zn supply, 1% citric acid added to phytic-acid-rich corn-germ-based diets; cited from earlier work.
The conditions of data set [11]: pigs; cited from earlier work.
For data set [12] the following is noted: in vivo; cited from earlier work. The source holds these as a separate data set.
[13] abbreviates: 10 ppm Zn, PA-free diet (group I).
The mark [14] stands for this setting: 20 ppm Zn + 0.4% PA (group III).

On to `O=C1O[C@H]([C@@H](O)CO)C(O)=C1O` [Ascorbic acid], for which, in data set [1], the “effect on bioavailability of inorganic iron” value was “increases”. The “effect on bioavailability of dietary zinc” value in data set [2] was “does not change”.

With `O.O.O.O.O.O.O.O=S(=O)([O-])[O-].[Zn+2]` [Zn sulfate, ZnSO4.7 H2O], the “zinc deficiency symptoms (anorexia, alopecia, depression of growth)” value in data set [3] was “still present”. Besides, in data set [4] (10 ppm Zn + 0.4% PA (group II)), the “Feed intake Total” value is 166 ^a g/28d, the “Feed intake d1-d7” value is on record as 37.4 ^a g, the “Feed intake d8-d14” value was 42.3 ^a g and the “Feed intake d15-d21” value is given as 40.5 ^a g. Moreover, in data set [4] (10 ppm Zn + 0.4% PA (group II)), the “Feed intake d22-d28” value is recorded as 45.3 ^a g, the “Live weight d7” value was 62.0^a g, the “Live weight d14” value is listed as 84.6^a g and the “Live weight d21” value is on record as 94.2^a g. Moreover, in [4] (10 ppm Zn + 0.4% PA (group II)), the “Live weight d28” value is listed as 106.5^a g, the “LW Gain” value is 60.7^a g and the “Live weight d0” value came out at 45.8 g. Also, in [4] (setting [13]), the “Feed intake Total” value was 272 ^b g/28d, the “Feed intake d1-d7” value was 40.4 ^ab g, the “Feed intake d8-d14” value was 67.8 ^bc g and the “Feed intake d15-d21” value is 77.5 ^bc g. In addition, in [4] (setting [13]), the “Feed intake d22-d28” value is listed as 86.6 ^b g, the “Live weight d7” value is on record as 58.1^ab g, the “Live weight d14” value is 104.2^ab g and the “Live weight d21” value is listed as 141.3^bc g. Moreover, in data set [4] (setting [13]), the “Live weight d28” value is recorded as 175.8^bc g, the “LW Gain” value was 128.5^bc g and the “Live weight d0” value worked out at 47.3 x g. Moreover, in data set [4] (setting [14]), the “Feed intake Total” value is recorded as 253 ^b g/28d, the “Feed intake d1-d7” value is 49.6 ^ab g, the “Feed intake d8-d14” value is listed as 61.0 ^b g and the “Feed intake d15-d21” value is on record as 67.9 ^b g. For the same compound, in data set [4] (setting [14]), the “Feed intake d22-d28” value is recorded as 74.8 ^b g, the “Live weight d7” value is on record as 68.4^ab g, the “Live weight d14” value was 102.4^ab g and the “Live weight d21” value was 132.3^b g. Besides, in data set [4] (setting [14]), the “Live weight d28” value is listed as 161.9^b g, the “LW Gain” value is given as 114.7^b g and the “Live weight d0” value is listed as 47.2 g. In addition, in data set [5] (10 ppm Zn + 0.4% PA (group II)), the “Apparent absorption of Zn” value was 43.0 ^a %, the “Apparent absorption of Zn (absolute)” value is reported as 0.351 ^a mg/14 d and the “Fecal excretion of Zn” value was 0.484 ^a mg/14 d. Besides, in data set [5] (setting [13]), the “Apparent absorption of Zn” value is reported as 76.4 ^b %, the “Apparent absorption of Zn (absolute)” value was 1.35 ^bc mg/14 d and the “Fecal excretion of Zn” value is 0.411 ^a mg/14 d. For the same compound, in [5] (setting [14]), the “Apparent absorption of Zn” value is recorded as 43.9 ^a %, the “Apparent absorption of Zn (absolute)” value is given as 1.13 ^b mg/14 d and the “Fecal excretion of Zn” value was 1.43 ^b mg/14 d. Also, the “Zn concentration in Femur” value in data set [6] (10 ppm Zn + 0.4% PA (group II)) was 36.3 ^a μg/g FW. The “Zn concentration in Femur” value in data set [6] (setting [13]) is recorded as 81.4 ^c μg/g FW. Besides, in data set [6] (setting [14]), the “Zn concentration in Femur” value is listed as 55.4 ^b μg/g FW. Also, in [7] (10 ppm Zn + 0.4% PA (group II)), the “Zn concentration in Plasma” value is listed as 0.57 ^a μg/ml. The “Zn concentration in Plasma” value in [7] (setting [13]) is given as 1.11 ^bc μg/ml. In addition, the “Zn concentration in Plasma” value in data set [7] (setting [14]) is reported as 0.80 ^ac μg/ml. Also, the “Alkaline Phosphatase activity in plasma” value in data set [8] (10 ppm Zn + 0.4% PA (group II)) was 216 ^a mU/ml Plasma. In data set [8] (setting [13]), the “Alkaline Phosphatase activity in plasma” value is recorded as 383 ^b mU/ml Plasma. Further, in data set [8] (setting [14]), the “Alkaline Phosphatase activity in plasma” value was 347 ^b mU/ml Plasma. For the same compound, in the data set with metallothionin (10 ppm Zn + 0.4% PA (group II)), the “Metallothionin concentration in liver tissue” value (“Metallothionin concentration” for short) amounted to 6.36 ng MT/mg Protein. The “Metallothionin concentration” value with metallothionin (setting [13]) is 8.08 ng MT/mg Protein. Further, in the data set with metallothionin (setting [14]), the “Metallothionin concentration” value is recorded as 7.58 ng MT/mg Protein.

In the case of `[Cl-].[Cl-].[Zn+2]` [ZnCl2], the “bioavailability of Zn2+ from organic or inorganic sources” value in data set [9] was “roughly comparable”.

With `O=C(O)CC(O)(CC(=O)O)C(=O)O` [citric acid], in data set [10], the “Zn status (plasma Zn concentration, alkaline phosphatase activity, metallothioneine concentration in the jejunum)” value was “moderate improvement”. Moreover, the “effect on Zn utilization” value in [11] is “positive effects”.

Regarding `O=C(O)C(=O)O` [oxalic acid], in [12], the “effects on Zn bioavailability (results of previous studies)” value is given as “not uniform”.

Regarding `O=C(O)c1ccccn1` [picolinic acid], the “effects on Zn bioavailability (results of previous studies)” value in data set [12] is “not uniform”.

On to `CCC(=O)[O-].CCC(=O)[O-].[Zn+2]` [zinc propionate], for which the “bioavailability of Zn2+ from organic or inorganic sources” value in data set [9] is “roughly comparable”.
